# Measured values taken from patent publication US10004770B2, “Production and use of bacterial histamine” (BioGaia AB, priority 2011, dated 2018).
# Entries after “also recorded” stand apart in the source; their conditions may differ.
# Legend:
# [1] = system: TNF production from TLR2-activated THP-1 cells; assay: TNF inhibition bioassay and TNF ELISA; assay type: cell-based, human; conditions: for block of TNF-inhibition by histamine: antagonist added before histamine 10^-5 M, ranitidine, cimetidine 10^-4-10^-6 M, indomethacin 10^-5-10^-6 M; for TNF production (TNF inhibition): THP-1 cells stimulated with 100 ng/mL Pam3Cys-SKKKK, 3.5 h, samples 5% v/v, histamine 10^-5 M, 6475 grown in glucose media (LDMIIIG)
# Method: In vitro experiments were performed with THP-1 cells (human monocytoid cell line, ATCC, Manassas, Va.) maintained in RPMI (ATCC) and heat-inactivated fetal bovine serum (Invitrogen, Carlsbad, Calif.) at 37° C., 5% CO2. MEK1/2, phospho-MEK1/2, ERK1/2, and phospho-ERK1/2 antibodies and MEK inhibitor U0126 were received from Cell Signaling Technology (Danvers, Mass.), and the β-Actin antibody was received from Abcam (Cambridge, Mass.). All other reagents were received from Sigma (St. Louis, Mo.) unless otherwise stated.
# Bacterial supernatants (10 mL) from a 24 h LDMIII culture were filter-sterilized using PVDF membrane filters (0.22 μm pore size, Millipore) and size fractionated as described above. One milliliter of the <3 kDa filtrate was speed vacuum dried and resuspended in RPMI media. These processed supernatant samples are termed conditioned media. All supernatants were normalized by volume to an OD600=1.0. Lyophilized fractions from the HILIC-HPLC separation were resuspended in 400 μL 10 mg/mL ammonium bicarbonate, speed vacuum dried, and resuspended in 400 μL RPMI media. Conditioned media and cell pellet wash fractions were tested for their ability to modulate TNF production in monocytoid cells. In brief, THP-1 cells (approximately 5×10^4 cells) were stimulated to produce TNF by the addition of 100 ng/mL Pam3Cys-SKKKK×3 HCl (EMC Microcollections, Tuebingen, Germany) as previously described. Inhibitors—H2 receptor antagonists, ranitidine and cimetidine (10^−4-10^−6 M), […], indomethacin (10^−5-10^−6 M), MEK inhibitor, U0126 (10 μM), and PKA inhibitor, H89 (N-[2-(p-bromocinnamylamino)ethyl]-5-isoquinolinesulfonamide dihydrochloride) (10^−5 M)—were added to the THP-1 cells followed by L. reuteri conditioned media or cell pellet wash fractions (5% v/v), histamine (10^−5 M), or dibutyryl cAMP (10^−3-10^−7 M). Plates were incubated at 37° C. and 5% CO2 for 3.5 h. THP-1 cells were pelleted (3000× g, 5 min, 4° C.), and quantitative ELISAs were used to determine TNF quantities in THP-1 cell supernatants according to the manufacturer's instructions (R&D Systems, Minneapolis, Minn.).
# ERK1/2 = ERK1/2 activation by Western blot; assay type: cell-based, human; conditions: activated THP-1 cells, compared to media control
# Method: (§1) THP-1 cells were lysed in ice-cold lysis buffer consisting of 50 mM Tris, pH 7.4, 250 mM NaCl, 5 mM EDTA, 50 mM NaF, 1 mM Na3VO4, 1% v/v Nonidet P40, 0.2% v/v NaN3, and protease and phosphatase inhibitors. Lysates were incubated on ice for 30 min, vortexed every 10 min, and cleared by centrifugation at 13,000×g for 10 min at 4° C. Protein concentrations were measured using the Quant-iT™ Protein Assay kit (Invitrogen) and a Qubit fluorometer according to the manufacturer's instructions. Equal amounts of proteins were loaded onto electrophoresis gels.
# (§2) Analysis of ERK1/2 activation was performed using specific phospho-ERK1/2 antibodies. Cell extracts were loaded on a 10% SDS-polyacrylamide gel and transferred to polyvinylidene difluoride membranes (Bio-Rad, Hercules, Calif.). Membranes were blocked overnight at 4° C. in blocking buffer (Li-Cor Biosciences, Lincoln, Nebr.). After several washes, membranes were probed with ERK1/2, phospho-ERK1/2 or β-Actin specific antibodies diluted in blocking buffer (Li-Cor) for 1 h at room temperature. After washes, membranes were incubated with the appropriate horseradish peroxidase-conjugated secondary antibody for 1 h at room temperature, and blots were then developed using a chemiluminescent detection. Analysis of MEK1/2 activation was performed as described above except primary antibody incubation was overnight at 4° C.
# MEK1/2 = MEK1/2 activation by Western blot; assay type: cell-based, human; conditions: activated THP-1 cells, compared to media control
# Method: as §1, §2
# H2 receptor = target: T1, H2 receptor (Mus musculus, UniProt P97292); conditions: endotoxin shock (LPS challenge) and hepatitis (LPS plus galactosamine challenge); cited from earlier work
# T1 construct: host or cells: living mice (endogenous receptor)
# patients with IBS = conditions: cited from earlier work
# [2] = system: peripheral blood mononuclear cells; conditions: cited from earlier work
# [3] = system: intracellular cAMP in THP-1 cells (H2 receptor signaling); assay: Intracellular cAMP in TLR2-stimulated THP-1 cells; assay type: cell-based, human; conditions: THP-1 cells stimulated with TLR2 agonist
# Method: The H2 receptor is a G protein linked receptor that can activate adenylate cyclase and increase intracellular cAMP. TNF can be inhibited at the level of transcription by cAMP and cAMP analogs. THP-1 cells were stimulated with a TLR2 agonist in the presence of a medium control, 6475 supernatant or histamine with or without an H2 receptor antagonist and intracellular levels of cAMP were measured. […] A synthetic analog of cAMP, dibutyryl cAMP (dcAMP), was added to TLR2-stimulated THP-1 cells and the effect on TNF production was monitored.
# LPS-induced liver injury = conditions: mouse; cited from earlier work
# TNFR1 [4] = conditions: injection into human skin engrafted on immunodeficient mice; cited from earlier work
# [5] = system: LPS-stimulated human monocytes and macrophages; conditions: cited from earlier work
# TNFR1 [6] = conditions: cultured human endothelial cells; cited from earlier work
# T1 sequence (P97292 whole entry): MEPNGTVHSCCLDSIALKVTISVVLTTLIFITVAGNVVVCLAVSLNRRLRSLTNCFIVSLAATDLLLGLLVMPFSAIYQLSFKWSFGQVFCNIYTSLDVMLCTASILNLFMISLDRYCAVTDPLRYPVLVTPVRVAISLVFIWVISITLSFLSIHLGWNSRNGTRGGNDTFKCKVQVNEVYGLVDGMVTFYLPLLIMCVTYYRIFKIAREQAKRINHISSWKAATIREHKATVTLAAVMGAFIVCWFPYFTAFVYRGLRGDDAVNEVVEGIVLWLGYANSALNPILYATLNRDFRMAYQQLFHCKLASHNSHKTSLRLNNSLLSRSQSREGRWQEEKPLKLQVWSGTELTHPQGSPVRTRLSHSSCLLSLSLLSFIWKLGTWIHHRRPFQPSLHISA
compound,measurement,setting,value
"CCCC(=O)Nc1ncnc2c1ncn2[C@@H]1O[C@@H]2COP(=O)(O)O[C@H]2[C@H]1OC(=O)CCC [dcAMP, dibutyryl cAMP]",TNF production,[1]; dcAMP 10^-5-10^-3 M added to TLR2-stimulated THP-1 cells,sufficient to inhibit TNF production
COc1ccc2c(c1)c(CC(=O)O)c(C)n2C(=O)c1ccc(Cl)cc1 [indomethacin],block of TNF-inhibition by histamine,[1],no effect
N#CC(=C(/N)Sc1ccccc1N)/C(C#N)=C(\N)Sc1ccccc1N [U0126],phosphorylation (activation) of ERK1/2,ERK1/2,blocks phosphorylation; also recorded: suppressed activation of ERK1/2
same,TNF production,[1]; U0126 treatment for 30 min prior to TLR2 agonist stimulation,sufficient to prevent TNF production
same,phosphorylation (activation) of MEK1/2,MEK1/2,blocks phosphorylation; also recorded: suppressed activation of MEK1/2
"Cl.Cl.O=S(=O)(NCCNCC=Cc1ccc(Br)cc1)c1cccc2cnccc12 [H89, N-[2-(p-bromocinnamylamino)ethyl]-5-isoquinolinesulfonamide dihydrochloride]",block of TNF inhibition by PKA inhibitor,"[1]; H89 10^-5 M in presence of 6475 supernatant, fraction B3, histamine or dcAMP",partially blocked TNF inhibition
CN(C)CCCSC(=N)N [dimaprit],plasma TNF levels,H2 receptor,reduced plasma TNF levels
CN1CCC(=C2c3ccccc3CC(=O)c3sccc32)CC1 [ketotifen],IBS symptoms,patients with IBS; patients with IBS,decreased IBS symptoms
same,pain threshold,patients with IBS; patients with IBS,increased pain threshold
same,number or activity of mast cells (histamine and tryptase release),patients with IBS; rectal biopsy tissue,no change
NCCc1c[nH]cn1 [histamine],LPS-induced synthesis of TNF-α,[2],suppressed
same,intracellular cAMP,[3],increase in cAMP; also recorded: increased intracellular cAMP
same,protection in LPS-induced liver injury,LPS-induced liver injury,protective
same,TNFR1 shedding and TNF-mediated induction of endothelial adhesion molecules,TNFR1 [4],caused shedding of TNFR1 and diminished TNF-mediated induction of endothelial adhesion molecules
same,"production of pro-inflammatory cytokines IL-1, IL-12 and TNF",[5]; LPS-stimulated human monocytes and macrophages,can inhibit production
same,production of anti-inflammatory cytokine IL-10,[5]; via the H2 receptor,can stimulate production
same,"TNFR1 surface level, shedding and mobilization",TNFR1 [6],"transient loss of surface TNFR1, increased TNFR1 shedding, and mobilization of TNFR1 molecules from the Golgi"
same,phosphorylation (activation) of ERK1/2,ERK1/2,blocks phosphorylation; also recorded: suppressed activation of ERK1/2
same,TNF production (TNF inhibition),[1],concentration dependent; also recorded: significantly inhibited TNF production
same,TNF production (TNF inhibition),[1]; listed as Histamine,significantly inhibit TNF production
same,phosphorylation (activation) of MEK1/2,MEK1/2,blocks phosphorylation; also recorded: suppressed activation of MEK1/2
CN/C(=N/CCSCc1nc[nH]c1C)NC#N [cimetidine],block of TNF-inhibition by histamine,[1],could block TNF-inhibition by histamine in a concentration dependent manner
